Source: PubChem BioAssay (NCI)
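Five concentrations, 48 hours, 96-well plates. GI50: concentration for 50% inhibition of growth. At the TGI there is no net growth.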

Legend:
Assay in all cases: NCI tumour cell line growth inhibition, 48 h
[1] = tested on: 786-0 renal
[2] = tested on: A498 renal
[3] = tested on: A549 NSCLC
[4] = tested on: ACHN renal
[5] = tested on: BT-549 breast
[6] = tested on: CAKI-1 renal
[7] = tested on: CCRF-CEM leukemia
[8] = tested on: COLO 205 colon
[9] = tested on: DU-145 prostate
[10] = tested on: EKVX NSCLC
[11] = tested on: HCC-2998 colon
[12] = tested on: HCT-116 colon
[13] = tested on: HCT-15 colon
[14] = tested on: HL-60(TB) leukemia
[15] = tested on: HOP-62 NSCLC
[16] = tested on: HS 578T breast
[17] = tested on: HT29 colon
[18] = tested on: IGROV1 ovarian
[19] = tested on: K-562 leukemia
[20] = tested on: KM12 colon
[21] = tested on: LOX IMVI melanoma
[22] = tested on: M14 melanoma
[23] = tested on: MALME-3M melanoma
[24] = tested on: MCF7 breast
[25] = tested on: MDA-MB-231 breast
[26] = tested on: MDA-MB-435
[27] = tested on: MDA-N
[28] = tested on: MOLT-4 leukemia
[29] = tested on: NCI-H226 lung
[30] = tested on: NCI-H23 lung
[31] = tested on: NCI-H460 lung
[32] = tested on: NCI-H522 lung
[33] = tested on: NCI/ADR-RES ovarian
[34] = tested on: OVCAR-3 ovarian
[35] = tested on: OVCAR-4 ovarian
[36] = tested on: OVCAR-5 ovarian
[37] = tested on: OVCAR-8 ovarian
[38] = tested on: PC-3 prostate
[39] = tested on: RPMI-8226 leukemia
[40] = tested on: RXF 393 renal
[41] = tested on: SF-268 CNS
[42] = tested on: SF-295 CNS
[43] = tested on: SF-539 CNS
[44] = tested on: SK-MEL-2 melanoma
[45] = tested on: SK-MEL-28 melanoma
[46] = tested on: SK-MEL-5 melanoma
[47] = tested on: SK-OV-3 ovarian
[48] = tested on: SN12C renal
[49] = tested on: SNB-19 CNS
[50] = tested on: SNB-75 CNS
[51] = tested on: SW-620 colon
[52] = tested on: T-47D breast
[53] = tested on: TK-10 renal
[54] = tested on: U251 CNS
[55] = tested on: UACC-257 melanoma
[56] = tested on: UACC-62 melanoma
[57] = tested on: UO-31 renal

With `O=C(O)CN(CCN(CC(=O)O)CC(=O)O)CC(=O)O.[Mn+2]` the GI50 [1] was > 100 µM, the TGI [1] was > 100 µM and the GI50 [2] was > 100 µM. For the same compound, the TGI [2] was > 100 µM, the GI50 [3] was > 100 µM and the TGI [3] was > 100 µM. The GI50 [4] was > 100 µM, the TGI [4] was > 100 µM and the GI50 [5] was > 100 µM. The TGI [5] was > 100 µM, the GI50 [6] was > 100 µM and the TGI [6] was > 100 µM. For the same compound, the GI50 [7] was > 100 µM, the TGI [7] was > 100 µM and the GI50 [8] was > 100 µM. For the same compound, the TGI [8] was > 100 µM, the GI50 [9] was > 100 µM and the TGI [9] was > 100 µM. For the same compound, the GI50 [10] was > 100 µM, the TGI [10] was > 100 µM and the GI50 [11] was > 100 µM. The TGI [11] was > 100 µM, the GI50 [12] was > 100 µM and the TGI [12] was > 100 µM. The GI50 [13] was > 100 µM, the TGI [13] was > 100 µM and the GI50 [14] was > 100 µM. The TGI [14] was > 100 µM, the GI50 [15] was > 100 µM and the TGI [15] was > 100 µM. The GI50 [16] was > 100 µM, the TGI [16] was > 100 µM and the GI50 [17] was > 100 µM. For the same compound, the TGI [17] was > 100 µM, the GI50 [18] was > 100 µM and the TGI [18] was > 100 µM. The GI50 [19] was > 100 µM, the TGI [19] was > 100 µM and the GI50 [20] was > 100 µM. The TGI [20] was > 100 µM, the GI50 [21] was > 100 µM and the TGI [21] was > 100 µM. For the same compound, the GI50 [22] was > 100 µM, the TGI [22] was > 100 µM and the GI50 [23] was > 100 µM. The TGI [23] was > 100 µM, the GI50 [24] was > 100 µM and the TGI [24] was > 100 µM. The GI50 [25] was > 100 µM, the TGI [25] was > 100 µM and the GI50 [26] was > 100 µM. For the same compound, the TGI [26] was > 100 µM, the GI50 [27] was > 100 µM and the TGI [27] was > 100 µM. The GI50 [28] was > 100 µM, the TGI [28] was > 100 µM and the GI50 [29] was > 100 µM. The TGI [29] was > 100 µM, the GI50 [30] was > 100 µM and the TGI [30] was > 100 µM. The GI50 [31] was > 100 µM, the TGI [31] was > 100 µM and the GI50 [32] was > 100 µM. The TGI [32] was > 100 µM, the GI50 [33] was > 100 µM and the TGI [33] was > 100 µM. The GI50 [34] was > 100 µM, the TGI [34] was > 100 µM and the GI50 [35] was > 100 µM. For the same compound, the TGI [35] was > 100 µM, the GI50 [36] was > 100 µM and the TGI [36] was > 100 µM. The GI50 [37] was > 100 µM, the TGI [37] was > 100 µM and the GI50 [38] was > 100 µM. The TGI [38] was > 100 µM, the GI50 [39] was > 100 µM and the TGI [39] was > 100 µM. For the same compound, the GI50 [40] was > 100 µM, the TGI [40] was > 100 µM and the GI50 [41] was > 100 µM. For the same compound, the TGI [41] was > 100 µM, the GI50 [42] was > 100 µM and the TGI [42] was > 100 µM. The GI50 [43] was > 100 µM, the TGI [43] was > 100 µM and the GI50 [44] was > 100 µM. For the same compound, the TGI [44] was > 100 µM, the GI50 [45] was > 100 µM and the TGI [45] was > 100 µM. The GI50 [46] was > 100 µM, the TGI [46] was > 100 µM and the GI50 [47] was > 100 µM. For the same compound, the TGI [47] was > 100 µM, the GI50 [48] was > 100 µM and the TGI [48] was > 100 µM. For the same compound, the GI50 [49] was > 100 µM, the TGI [49] was > 100 µM and the GI50 [50] was > 100 µM. The TGI [50] was > 100 µM, the GI50 [51] was > 100 µM and the TGI [51] was > 100 µM. The GI50 [52] was > 100 µM, the TGI [52] was > 100 µM and the GI50 [53] was > 100 µM. The TGI [53] was > 100 µM, the GI50 [54] was > 100 µM and the TGI [54] was > 100 µM. The GI50 [55] was > 100 µM, the TGI [55] was > 100 µM and the GI50 [56] was > 100 µM. The TGI [56] was > 100 µM, the GI50 [57] was > 100 µM and the TGI [57] was > 100 µM.
